The results in this text go back to patent US11530210B2, “Substituted heteroaromatic pyrazolo-pyridines and their use as GLUN2B receptor modulators” (JANSSEN PHARMACEUTICA NV, priority 2019, dated 2022).

Counter-ions that a name gives are not always drawn. Some results are limits rather than exact numbers.

In this assay the target is T1, human GluN1/GluN2B NMDA receptors (Homo sapiens, UniProt Q13224).
T1 construct: expressed in transfected cells
T1 sequence (Q13224 27-1484, other chains not shown): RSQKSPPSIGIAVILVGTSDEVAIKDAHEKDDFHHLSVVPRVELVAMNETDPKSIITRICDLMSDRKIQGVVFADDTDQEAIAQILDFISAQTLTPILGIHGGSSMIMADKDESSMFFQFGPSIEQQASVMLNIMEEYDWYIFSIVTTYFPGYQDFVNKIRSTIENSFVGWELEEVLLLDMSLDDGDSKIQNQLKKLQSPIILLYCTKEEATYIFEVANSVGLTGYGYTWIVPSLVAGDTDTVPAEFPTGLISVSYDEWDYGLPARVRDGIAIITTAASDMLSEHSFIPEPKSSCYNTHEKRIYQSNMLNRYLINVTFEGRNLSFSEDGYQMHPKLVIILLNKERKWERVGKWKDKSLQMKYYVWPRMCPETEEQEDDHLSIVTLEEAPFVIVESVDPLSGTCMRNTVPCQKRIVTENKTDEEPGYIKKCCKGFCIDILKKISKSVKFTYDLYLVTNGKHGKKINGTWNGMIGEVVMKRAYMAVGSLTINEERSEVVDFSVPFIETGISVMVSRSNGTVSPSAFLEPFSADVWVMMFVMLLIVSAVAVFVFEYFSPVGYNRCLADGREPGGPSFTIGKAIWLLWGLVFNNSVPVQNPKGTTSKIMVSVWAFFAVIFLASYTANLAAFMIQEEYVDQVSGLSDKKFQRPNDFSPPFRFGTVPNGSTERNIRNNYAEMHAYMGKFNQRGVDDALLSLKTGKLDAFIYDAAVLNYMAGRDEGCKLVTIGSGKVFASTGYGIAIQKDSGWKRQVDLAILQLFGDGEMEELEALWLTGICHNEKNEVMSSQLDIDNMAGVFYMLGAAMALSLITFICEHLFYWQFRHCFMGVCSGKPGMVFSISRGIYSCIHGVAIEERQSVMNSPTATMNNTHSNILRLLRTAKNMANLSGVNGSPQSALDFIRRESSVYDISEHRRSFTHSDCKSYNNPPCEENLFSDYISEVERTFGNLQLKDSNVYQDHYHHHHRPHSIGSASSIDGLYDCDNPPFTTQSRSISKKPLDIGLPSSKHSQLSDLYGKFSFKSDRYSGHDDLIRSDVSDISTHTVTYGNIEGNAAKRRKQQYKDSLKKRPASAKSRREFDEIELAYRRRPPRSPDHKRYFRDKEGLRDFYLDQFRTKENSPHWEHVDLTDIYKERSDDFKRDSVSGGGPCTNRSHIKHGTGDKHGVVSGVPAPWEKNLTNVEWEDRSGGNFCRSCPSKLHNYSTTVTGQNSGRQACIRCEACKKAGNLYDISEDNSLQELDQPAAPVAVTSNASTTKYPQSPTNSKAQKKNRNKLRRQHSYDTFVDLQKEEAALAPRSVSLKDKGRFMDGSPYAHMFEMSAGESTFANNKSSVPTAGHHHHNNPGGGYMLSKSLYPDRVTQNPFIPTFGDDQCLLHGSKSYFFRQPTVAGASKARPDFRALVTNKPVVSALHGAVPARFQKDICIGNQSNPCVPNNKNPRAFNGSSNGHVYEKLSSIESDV
In words: Calcium flux (FLIPR) assay on cloned human NR1/GluN2B ion channels expressed in mammalian cells (standard and HTS variants). The assay is classed as cell-based. Conditions: cells expressing human GluN1/GluN2B, glutamate and glycine co-agonists. In outline: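 Tet-On-induced stable cell line loaded with Calcium 5 dye; compounds applied 5 min (agonist check), then glutamate at ~EC40 plus 10 μM glycine for 5 min. Buffer pH 7.4 with 0.5 mM MgCl2 in dye loading (standard) or 1.5 mM (HTS). FLIPR fluorescence normalized to control wells; (+)MK-801 as antagonist control.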
On the technique in general: Calcium flux is commonly read through the fluorescence of an indicator in the cells.
Take `Fc1cc(F)cc(Cn2ncc3ncc(-c4ccc(F)c(OC(F)F)c4)cc32)c1` [Example 30, 6-[3-(Difluoromethoxy)-4-fluoro-phenyl]-1-[(3,5-difluorophenyl)methyl]pyrazolo[4,3-b]pyridine]: the IC50 came out at 536 nM.

With `Fc1cc(-c2cnc3cnn(Cc4cncc(OC(F)F)c4)c3c2)cc(F)c1F` [Example 253, 1-[[5-(Difluoromethoxy)-3-pyridyl]methyl]-6-(3,4,5-trifluorophenyl)pyrazolo[4,3-b]pyridine], the IC50 was determined as 980 nM. Turning to `Cc1nc(Cn2ncc3ncc(-c4ccc(F)c(OC(F)F)c4)cc32)no1` [Example 114, 3-[[6-[3-(Difluoromethoxy)-4-fluoro-phenyl]pyrazolo[4,3-b]pyridin-1-yl]methyl]-5-methyl-1,2,4-oxadiazole], the IC50 was 279 nM. With `Nc1nnc(Cn2ncc3ncc(-c4ccc(F)c(OC(F)F)c4)cc32)s1` [Example 18, 5-[[6-[3-(Difluoromethoxy)-4-fluoro-phenyl]pyrazolo[4,3-b]pyridin-1-yl]methyl]-1,3,4-thiadiazol-2-amine] the figure was 3550 nM; with `CNc1nnc(Cn2ncc3ncc(-c4ccc(F)c(C(F)F)c4)cc32)s1` [Example 126, 5-((6-(3-(difluoromethyl)-4-fluorophenyl)-1H-pyrazolo[4,3-b]pyridin-1-yl)methyl)-N-methyl-1,3,4-thiadiazol-2-amine], 1620 nM; with `Cc1nnc(Cn2ncc3ncc(-c4ccc(F)c(C)c4)cc32)o1` [Example 89, 2-[[6-(4-Fluoro-3-methyl-phenyl)pyrazolo[4,3-b]pyridin-1-yl]methyl]-5-methyl-1,3,4-oxadiazole], 37 nM.

`Cc1cnc(Cn2ncc3ncc(-c4ccc(F)c(C)c4F)cc32)o1` [Example 9, 2-[[6-(2,4-Difluoro-3-methyl-phenyl)pyrazolo[4,3-b]pyridin-1-yl]methyl]-5-methyl-oxazole]: the IC50 turned out to be 78 nM. In the case of `FC(F)(F)c1cccc(-c2cnc3cnn(Cc4cccnn4)c3c2)c1` [Example 258, 1-(Pyridazin-3-ylmethyl)-6-[3-(trifluoromethyl)phenyl]pyrazolo[4,3-b]pyridine], the IC50 stood at 240 nM. To `Cc1ccc(Cn2ncc3ncc(-c4ccc(F)c(OC(F)F)c4)cc32)nn1` [Example 264, 6-[3-(Difluoromethoxy)-4-fluoro-phenyl]-1-[(6-methylpyridazin-3-yl)methyl]pyrazolo[4,3-b]pyridine] belongs 626 nM; to `Cc1ccc(Cn2ncc3ncc(-c4cccc(C(F)(F)F)c4)cc32)cn1` [Example 165, 1-[(6-Methyl-3-pyridyl)methyl]-6-[3-(trifluoromethyl)phenyl]pyrazolo[4,3-b]pyridine], 2170 nM.

On to `Fc1ccc(-c2cnc3cnn(Cc4nnc(-c5ccccc5)o4)c3c2)cc1C(F)F` [Example 103, 2-[[6-[3-(Difluoromethyl)-4-fluoro-phenyl]pyrazolo[4,3-b]pyridin-1-yl]methyl]-5-phenyl-1,3,4-oxadiazole], for which the IC50 was above 2990 nM. `COc1cncc(Cn2ncc3ncc(-c4ccc(Cl)c(Cl)c4)cc32)c1` [Example 215, 6-(3,4-Dichlorophenyl)-1-[(5-methoxy-3-pyridyl)methyl]pyrazolo[4,3-b]pyridine]: the IC50 was 217 nM. `Fc1ccc(-c2cnc3cnn(Cc4ccncn4)c3c2)cc1OC(F)F` [Example 271, 6-[3-(Difluoromethoxy)-4-fluoro-phenyl]-1-(pyrimidin-4-ylmethyl)pyrazolo[4,3-b]pyridine]: the half-inhibitory concentration (IC50) is 401 nM. With `FC(F)(F)c1cccc(-c2cnc3cnn(Cc4cccnc4)c3c2)c1` [Example 163, 1-(3-Pyridylmethyl)-6-[3-(trifluoromethyl)phenyl]pyrazolo[4,3-b]pyridine hydrochloride salt] the figure was 90 nM; with `Cc1cncc(Cn2ncc3ncc(-c4ccc(F)c(C(C)(F)F)c4)cc32)c1` [Example 217, 6-[3-(1,1-Difluoroethyl)-4-fluoro-phenyl]-1-[(5-methyl-3-pyridyl)methyl]pyrazolo[4,3-b]pyridine], 189 nM.

As to `Cn1cnnc1Cn1ncc2ncc(-c3ccc(F)c(C(F)F)c3)cc21` [Example 74, 6-[3-(Difluoromethyl)-4-fluoro-phenyl]-1-[(4-methyl-1,2,4-triazol-3-yl)methyl]pyrazolo[4,3-b]pyridine], the IC50 came out at 111 nM. Take `FC(F)(F)c1cccc(-c2cnc3cnn(Cc4ccon4)c3c2)c1` [Example 44, 3-[[6-[3-(Trifluoromethyl)phenyl]pyrazolo[4,3-b]pyridin-1-yl]methyl]isoxazole]: the IC50 was determined as 165 nM. Regarding `Cc1nccc(Cn2ncc3ncc(-c4cccc(C(F)(F)F)c4)cc32)n1` [Example 283, 1-[(2-Methylpyrimidin-4-yl)methyl]-6-[3-(trifluoromethyl)phenyl]pyrazolo[4,3-b]pyridine], the IC50 is 3250 nM. With `COc1cncc(Cn2ncc3ncc(-c4ccc(F)c(C(F)F)c4)cc32)c1` [Example 207, 6-[3-(Difluoromethyl)-4-fluoro-phenyl]-1-[(5-methoxy-3-pyridyl)methyl]pyrazolo[4,3-b]pyridine] the figure was 28 nM; with `FC(F)(F)c1cccc(-c2cnc3cnn(Cc4cncc(Br)c4)c3c2)c1` [Example 2, 1-[(5-Bromo-3-pyridyl)methyl]-6-[3-(trifluoromethyl)phenyl]pyrazolo[4,3-b]pyridine], 329 nM; with `Cc1ncc(Cn2ncc3ncc(-c4ccc(F)c(C)c4)cc32)o1` [Example 48, 5-[[6-(4-Fluoro-3-methyl-phenyl)pyrazolo[4,3-b]pyridin-1-yl]methyl]-2-methyl-oxazole], 113 nM. Consider `Cc1csc(-c2cnc3cnn(Cc4cccnc4)c3c2)c1` [Example 137, 6-(4-Methyl-2-thienyl)-1-(3-pyridylmethyl)pyrazolo[4,3-b]pyridine], for which the IC50 worked out at 116 nM.

On to `Fc1ccc(-c2cnc3cnn(Cc4cncc(OC(F)F)c4)c3c2)cc1F` [Example 194, 1-[[5-(Difluoromethoxy)-3-pyridyl]methyl]-6-(3,4-difluorophenyl)pyrazolo[4,3-b]pyridine], for which the IC50 is 850 nM. For the compound `Cc1nnc(Cn2ncc3ncc(-c4ccc(F)c(C(=O)O)c4)cc32)o1` [Example 293, 2-Fluoro-5-(1-((5-methyl-1,3,4-oxadiazol-2-yl)methyl)-1H-pyrazolo[4,3-b]pyridin-6-yl)benzoic acid], the IC50 was above 10000 nM. Consider `N#Cc1cncc(Cn2ncc3ncc(-c4ccc(C(F)(F)F)s4)cc32)c1` [Example 144, 5-[[6-[5-(Trifluoromethyl)-2-thienyl]pyrazolo[4,3-b]pyridin-1-yl]methyl]pyridine-3-carbonitrile], for which the IC50 amounted to 582 nM.

For the compound `Cc1nnc(Cn2ncc3ncc(-c4ccc(F)c(C)c4F)cc32)s1` [Example 136, 2-[[6-(2,4-Difluoro-3-methyl-phenyl)pyrazolo[4,3-b]pyridin-1-yl]methyl]-5-methyl-1,3,4-thiadiazole], the half-inhibitory concentration (IC50) was 17 nM.

Take `FC(F)(F)c1cccc(-c2cnc3cnn(Cc4cnccn4)c3c2)c1` [Example 5, 1-(Pyrazin-2-ylmethyl)-6-[3-(trifluoromethyl)phenyl]pyrazolo[4,3-b]pyridine dihydrochloride salt]: the IC50 came out at 237 nM. In the case of `Clc1ccsc1-c1cnc2cnn(Cc3cccnc3)c2c1` [Example 141, 6-(3-Chloro-2-thienyl)-1-(3-pyridylmethyl)pyrazolo[4,3-b]pyridine], the IC50 was 61 nM. For `Cc1ncc(Cn2ncc3ncc(-c4ccc(F)c(F)c4)cc32)cn1` [Example 285, 6-(3,4-Difluorophenyl)-1-[(2-methylpyrimidin-5-yl)methyl]pyrazolo[4,3-b]pyridine], the IC50 was above 10000 nM. To `N#Cc1cncc(Cn2ncc3ncc(-c4ccc(F)c(OC(F)F)c4)cc32)c1` [Example 226, 5-[[6-[3-(Difluoromethoxy)-4-fluoro-phenyl]pyrazolo[4,3-b]pyridin-1-yl]methyl]pyridine-3-carbonitrile] belongs 68 nM; to `Cc1nnc(Cn2ncc3ncc(-c4ccc(F)c(OC(F)F)c4)cc32)s1` [Example 133, 2-[[6-[3-(Difluoromethoxy)-4-fluoro-phenyl]pyrazolo[4,3-b]pyridin-1-yl]methyl]-5-methyl-1,3,4-thiadiazole], 72 nM; to `FC(F)Oc1cc(-c2cnc3cnn(Cc4cncnc4)c3c2)ccc1Cl` [Example 279, 6-[4-Chloro-3-(difluoromethoxy)phenyl]-1-(pyrimidin-5-ylmethyl)pyrazolo[4,3-b]pyridine], 90 nM. Regarding `Cc1nnc(Cn2nc(F)c3ncc(-c4cccc(C(C)(F)F)c4)cc32)o1` [Example 83, 2-[[6-[3-(1,1-Difluoroethyl)phenyl]-3-fluoro-pyrazolo[4,3-b]pyridin-1-yl]methyl]-5-methyl-1,3,4-oxadiazole], the IC50 was 126 nM. Regarding `Fc1ccc(-c2cnc3cnn(Cc4cccnn4)c3c2)cc1OC(F)F` [Example 263, 6-[3-(Difluoromethoxy)-4-fluoro-phenyl]-1-(pyridazin-3-ylmethyl)pyrazolo[4,3-b]pyridine], the IC50 was 112 nM.

In the case of `Cc1nnc(Cn2ncc3ncc(-c4ccc(F)c(C)c4F)cc32)o1` [Example 118, 2-[[6-(2,4-Difluoro-3-methyl-phenyl)pyrazolo[4,3-b]pyridin-1-yl]methyl]-5-methyl-1,3,4-oxadiazole], the IC50 was 35 nM. Consider `COc1cncc(Cn2ncc3ncc(-c4ccc(F)c(F)c4)cc32)c1` [Example 193, 6-(3,4-Difluorophenyl)-1-[(5-methoxy-3-pyridyl)methyl]pyrazolo[4,3-b]pyridine], for which the IC50 turned out to be 277 nM. With `COc1cncc(Cn2ncc3ncc(-c4ccc(Cl)c(C(F)F)c4)cc32)c1` [Example 232, 6-[4-chloro-3-(Difluoromethyl)phenyl]-1-[(5-methoxy-3-pyridyl)methyl]pyrazolo[4,3-b]pyridine] the figure was 40 nM.

One may read the IC50 as the concentration that gives 50% inhibition.
